“And” between values parts separate entries of the source, which are not always exact repeats. Identical values can stand only once.
Assays:
[1] = Phase 1 PET-CT brain biodistribution study TM0017 (VT, K1, k2); assay type: in vivo, human
Procedure: A sample size of 2–10 participants was considered sufficient to meet the objectives, whilst limiting radiation exposure.
The preparation of radiopharmaceuticals and execution of PET-CT scans was performed by radiochemists, physicians, and technologists of Invicro (London, UK). Following local anesthesia, a catheter was inserted into the radial artery by an experienced physician; two venous catheters were also inserted. […] Upon administration, dynamic scanning started immediately and continued for 90 min.
(§1) Arterial input function data were acquired and processed for all PET scans.
Anatomical regions of interest (ROI) were defined via nonlinear deformation of a template MR image and associated neuroanatomical atlas, to match individual participants’ MR images. These ROI included, but were not limited to: parietal lobe, occipital lobe, frontal lobe, temporal lobe, striatum, cerebellum, thalamus, and the brain stem. Participants’ PET images were registered to their MR images, enabling the individualized ROI to be applied to the dynamic emission data to generate regional time activity curves (TACs). For additional information on the generation of regional TACs, see the electronic supplement.
Phase 1 PET Study in Healthy Male Participants (TM0017)
The TAC and total plasma data were fitted to a single compartment model to determine the influx and efflux constants K1 and k2. Because the plasma free fraction estimate is imprecise, we elected to fit the model using the total (free and bound) arterial concentration input function. The parameters of this model are related to the analogous parameters which would be estimated using an accurate estimate of the free arterial concentration using the equations below. We were able therefore to determine and present the K1 and estimated whole brain total distribution volume (VT), with relatively good repeatability between patients, and the equations below could also be used to relate the overall mean estimates back to the ideal total brain to free plasma minzasolmin (V’T) and unidirectional extraction Eu which can be calculated using the free fraction. The blood volume in the model was fixed at 5%. In this model, radiotracer which is free in tissue, non-specifically bound and specifically bound (i.e. to a target of interest) are lumped together in a single compartment, and so interchange between those states is assumed to be rapid.
The arterial input function used represents the total concentration of parent radiotracer in plasma, with no correction for plasma protein binding and the fitted and observed K1 from this model is lower than the rate of uptake from the free plasma concentration (K’1):
To calculate the Eu from the observed K1 from the model we then need to combine […]
The partition coefficient between total brain and total plasma concentration was determined from the fitted K1 and k2 parameters: […]
and the ratio of total concentration in brain to free concentration in plasma ( V’T) could be […]
Supplemental Fig. 1. Example of HPLC chromatograms (radioactive trace, top; UV trace, bottom) obtained during HPLC analysis of [11C-N-CH3]UCB2713 dose. The time delay

[2] = Arterial plasma radio-metabolite analysis during PET scans (TM0017); assay type: in vivo, human
Text: as §1

[3] = Safety and tolerability in TM0017 (TEAEs, ECG, vital signs); conditions: TM0017, N = 4, IV radiotracer (≤ 10 µg)
Procedure: Other safety variables recorded include changes in 12-lead electrocardiogram (ECG) assessment and changes in vital signs (heart rate, systolic blood pressure, diastolic blood pressure, respiratory rate, and body temperature). Vital signs were measured in supine position following 5 min of rest and clinically significant abnormalities (according to the investigator) were recorded as an AE. All ECG recordings were performed following 5 min of rest in the supine position, in triplicate, with ≥ 1 min between each recording. If any clinically significant abnormalities occurred, an ECG data specialist was to review the recordings.

[4] = background statement, no reference given; cited from earlier work
[5] = Radio-HPLC metabolite analysis of mouse brain homogenate and plasma after IV radiotracer; assay type: in vivo, male C57 black 6 mice; conditions: for polar metabolites in mouse brain: radio-HPLC column eluent front ~1.5-2 min; for % Parent Plasma / % Parent Brain: individual mice; for % Parent Brain: brain homogenate; for share of total brain activity corresponding to the parent / share of total plasma activity corresponding to the parent: approximate
Procedure: In this preclinical study, two radiolabeling positions were investigated, [^11C-N-CH3]UCB2713 and [^11C]carbonyl UCB2713 ([^11C-CO]UCB2713). The radiolabeling of [^11C-N-CH3]UCB2713 was performed by N-methylation of the corresponding desmethyl precursor with [^11C]methyl iodide and radiolabeling of [^11C-CO]UCB2713 was performed by [^11C]aminocarbonylation of the iodo precursor and the amino precursor with [^11C]carbon monoxide in the presence of Pd(π-cinnamyl) chloride dimer and Xantphos (4,5-bis(diphenylphosphino)-9,9-dimethylxanthene) (Fig. 1b). For additional information on the precursor molecules and radiolabeling methods, see the electronic supplement. A high-performance liquid chromatography (HPLC) metabolite analysis method was developed to quantify the ratio of [^11C-N-CH3]UCB2713 and other unidentified metabolites in plasma and brain homogenate samples. Relative quantification was used to provide the ratio of parent to metabolite in these samples.
Preclinical experiments were conducted on male C57 black 6 mice (N = 10). In vivo experiments were performed on 3 mice and included a PET scan of the brain; ex vivo experiments were performed on all 10 mice and included samples of brain homogenate.
[11C]UCB2713 in vivo/ex vivo Evaluation
Administration of Radioligand and Collecting Samples
Each mouse received an intravenous (IV) bolus injection of [11C]UCB2713 via the jugular vein. The mean (standard deviation [SD]) mass of each radiotracer dose was 1.54 (± 1.03) µg; with a radioactive dose of 17.26 (± 10.88) MBq. At pre-defined time points (40, 60, and 90 min) post-administration of [11C]UCB2713, each mouse was euthanized by exsanguination, followed by cervical dislocation, with blood samples collected in heparin tubes and the brain dissected.
Brain Sample Processing and Preparation of Sample for Analysis
A sample of brain homogenate (1:1, brain:water) was assessed for radioactivity using a γ-counter. Brain homogenate was extracted with a ratio of 1:2 (homogenate:acetonitrile); a ratio of 1:1 was used for the first two animals. The mixture was vortexed for 3 min followed by centrifugation (12000 x g) for 5 min at room temperature. The extraction efficiency was […]
Brain extraction efficiency = counts per minute (CPM) in supernatant (brain extract)/CPM in brain homogenate extracted
To identify the parent-retention time based on the ultraviolet (UV) chromatogram, 20 µL of a solution containing UCB2713 was added to the supernatant (350 µL), followed by 350 µL of 50 mM ammonium formate (adjusted to pH 8), then 0.5 mL of the resulting solution was injected onto the high-performance liquid chromatography (HPLC) column.
Two aliquots of this solution were counted to determine the HPLC recovery as follows:
Recovery efficiency % = = i=1 ∙100 […]
Where “CPM(aliq.)” is the radioactivity measured for the HPLC brain homogenate samples aliquot, “Valiq.” Is the volume of each aliquot , “CPM fi” is the count per minute for fraction “i” and ∑ 30 is the sum of 30 fractions.
Mouse blood samples were centrifuged at 7500 x g for 3 min at 4 °C and plasma was extracted with a ratio of 1:1 (plasma:acetonitrile). The plasma extraction efficiency was […]
Plasma extraction efficiency = CPM in supernatant (plasma extract)/CPM in plasma […]
Samples were prepared as described above for the brain, and two aliquots of solution were counted to determine the HPLC column recovery.
HPLC Procedure and Data Analysis
The HPLC system used a pump, degasser, UV-Vis/Diode Array Detector, and fraction collector. HPLC conditions used were 55% acetonitrile and 45% 100 mM ammonium formate (Method 1), or 48% acetonitrile and 52% 100 mM ammonium formate (adjusted to pH 8; Method 2) as the mobile phase at 5 mL/min and an Agilent XDB-C18 semi-preparative […]
(§2) column (5 micron, 250 x 9.4 mm; Method 2); 30 sample fractions (Method 1) and 36 sample fractions (Method 2) were collected over either a 10- or 12-min run.
A radio-chromatogram was reconstructed from the HPLC fractions collected and the […]

[6] = PET-CT imaging of the mouse brain (time-activity curve, SUV); assay type: in vivo, male C57 black 6 mice; conditions: at 60 min
Procedure: Preclinical experiments were conducted on male C57 black 6 mice (N = 10). In vivo experiments were performed on 3 mice and included a PET scan of the brain; ex vivo experiments were performed on all 10 mice and included samples of brain homogenate. […]
as §2
A radio-chromatogram was reconstructed from the HPLC fractions collected and the percent of unchanged [11C]UCB2713 was calculated:
[11C]UCB2713 parent fraction = i=n i
Where “cCPM fi” is the radioactivity measured for the HPLC fraction, corrected for the background radioactivity. “n” is first and “m” the last HPLC fraction containing the parent compound (1 ≤ n, m ≤ 30 or 36 [where 30 or 36 are the total number of fractions collected]).
PET-Computed Tomography (CT) Scanning and Image Reconstruction
Three mice were euthanized at the 90 min time point following radioligand injection. Prior to euthanization, these mice were scanned by PET-CT. A dynamic PET scan (Siemens Inveon DPET with docked multi-modality CT scanner) was acquired for each anesthetized mouse following IV administration of [11C]UCB2713. PET images were acquired in list mode and reconstructed with increasing time frames over the duration of the scan to characterize radiotracer kinetics. […]

[7] = Cerebellum, Scan 2 (after oral minzasolmin 360 mg)
[8] = Cerebral white matter, Scan 1 (baseline)
[9] = Cerebral white matter, Scan 2 (after oral minzasolmin 360 mg)
[10] = Frontal lobe, Scan 1 (baseline)
[11] = Frontal lobe, Scan 2 (after oral minzasolmin 360 mg)
[12] = Gray matter, Scan 2 (after oral minzasolmin 360 mg)
[13] = Occipital lobe, Scan 1 (baseline)
[14] = Occipital lobe, Scan 2 (after oral minzasolmin 360 mg)
[15] = Parietal lobe, Scan 1 (baseline)
[16] = Parietal lobe, Scan 2 (after oral minzasolmin 360 mg)
[17] = Striatum, Scan 2 (after oral minzasolmin 360 mg)
[18] = Temporal lobe, Scan 1 (baseline)
[19] = Temporal lobe, Scan 2 (after oral minzasolmin 360 mg)
[20] = mixed effects model, after oral minzasolmin 360 mg
[21] = mouse, 40 min post-administration

## CCCC[C@H](Cc1c[nH]c2ccccc12)NC(=O)c1cnc(N2CCN([11CH3])CC2)s1 [[^11C]minzasolmin]
[1]; Cerebellum, Scan 1 (baseline)
  K1: 0.02 mL/cm^3/min
  VT: 0.522 mL/cm^3
[1]; [7]
  K1: 0.018 mL/cm^3/min
  VT: 0.499 mL/cm^3
[1]; [8]
  K1: 0.008 mL/cm^3/min
  VT: 0.469 mL/cm^3
[1]; [9]
  K1: 0.007 mL/cm^3/min
  VT: 0.523 mL/cm^3
[1]; [10]
  K1: 0.017 mL/cm^3/min
  VT: 0.539 mL/cm^3
[1]; [11]
  K1: 0.014 mL/cm^3/min
  VT: 0.539 mL/cm^3
[1]; Gray matter, Scan 1 (baseline)
  K1: 0.017 mL/cm^3/min
  VT: 0.547 mL/cm^3
[1]; [12]
  K1: 0.015 mL/cm^3/min
  VT: 0.542 mL/cm^3
[1]; [13]
  K1: 0.019 mL/cm^3/min
  VT: 0.548 mL/cm^3
[1]; [14]
  K1: 0.017 mL/cm^3/min
  VT: 0.555 mL/cm^3
[1]; [15]
  K1: 0.017 mL/cm^3/min
  VT: 0.551 mL/cm^3
[1]; [16]
  K1: 0.015 mL/cm^3/min
  VT: 0.574 mL/cm^3
[1]; Scan 1 vs Scan 2
  VT before and after dosing with minzasolmin 360 mg: no difference in VT
[1]; Striatum, Scan 1 (baseline)
  K1: 0.015 mL/cm^3/min
  VT: 0.545 mL/cm^3
[1]; [17]
  K1: 0.013 mL/cm^3/min
  VT: 0.528 mL/cm^3
[1]; [18]
  K1: 0.017 mL/cm^3/min
  VT: 0.566 mL/cm^3
[1]; [19]
  K1: 0.015 mL/cm^3/min
  VT: 0.557 mL/cm^3
[1]; across each participant and all ROI, from total plasma concentrations
  overall mean brain influx rate (K1): 0.015 mL/cm^3/min
[1]; following radiotracer injections
  qualitative assessment of the PET images: distributed throughout the brain
[1]; least squares mean of mixed model over all regions and participants
  mean difference in VT between Scan 1 and Scan 2: -0.008 mL/cm^3
[1]; [20]
  change in K1 after oral dosing: -15.9%
  change in k2 after oral dosing: -9.3%
[2]; human arterial plasma, at 90 min
  radioactivity in plasma attributable to intact parent radiotracer: ~ 50%
[2]; human plasma, up to 30 min
  total parent fraction during the radiotracer brain uptake phase: > 70%
[3]
  Any TEAEs: 3 (75) n (%)
  Deaths: 0 n (%)
  Discontinuations due to TEAEs: 0 n (%)
  Drug-related TEAEs: 0 n (%)
  Serious TEAEs: 0 n (%)
  Severe TEAEs: 0 n (%)
  TEAEs of special interest: 0 n (%)

## CCCCC(Cc1c[nH]c2ccccc12)NC(=O)c1cnc(N2CCN(C)CC2)s1 (stereo not drawn) [UCB2713]
[4]
  rate of metabolism compared with the other enantiomer: higher rate of metabolism

## CCCC[C@@H](Cc1c[nH]c2ccccc12)N[11C](=O)c1cnc(N2CCN(C)CC2)s1 [[^11C-CO]UCB2713]
[5]; in-vivo metabolism studies in mice
  parent fraction in brain tissue: > 95%
[5]
  polar metabolites in mouse brain: no polar metabolite present in the mouse brain

## CCCC[C@@H](Cc1c[nH]c2ccccc12)N[11C](=O)c1cnc(N2CCNCC2)s1 [desmethyl-[^11C-CO]UCB2713]
[5]; radio-HPLC of brain homogenate after [11C-CO]UCB2713
  amount of desmethyl metabolite observed in mouse brain: ~ 2%

## CCCC[C@@H](Cc1c[nH]c2ccccc12)NC(=O)c1cnc(N2CCN([11CH3])CC2)s1 [[^11C-N-CH3]UCB2713]
[5]; 40 min post IV administration
  % Parent Plasma: 34.3% and 27.0% and 29.3% and 30.8%
  % Parent Brain: 62.0% and 61.1% and 56.0% and 58.2%
[5]; 60 min post IV administration
  % Parent Plasma: 30.6% and 19.5% and 24.6%
  % Parent Brain: 52.6% and 40.9% and 50.3%
[5]; 90 min post IV administration
  % Parent Plasma: 9.7% and 26.0% and 17.7%
  % Parent Brain: 34.7% and 29.7% and 22.1%
[5]; male, C57 black 6, mouse, brain/plasma, intravenous, 1.54 µg, mouse, 40 min, read-out: ratio (SD) of parent in the brain versus parent in plasma
  Kp at 40 min: 0.77 ± 0.11
[5]; male, C57 black 6, mouse, brain/plasma, intravenous, 1.54 µg, mouse, 60 min, read-out: ratio (SD) of parent in the brain versus parent in plasma
  Kp at 60 min: 0.73 ± 0.06
[5]; male, C57 black 6, mouse, brain/plasma, intravenous, 1.54 µg, mouse, 90 min, read-out: ratio (SD) of parent in the brain versus parent in plasma
  Kp at 90 min: 0.79 ± 0.69
[5]; [21]
  share of total brain activity corresponding to the parent: approximately 60%
  share of total plasma activity corresponding to the parent: approximately 30%
[5]; mouse, 90 min
  share of total brain activity corresponding to the parent: approximately 30%
  share of total plasma activity corresponding to the parent: ~20%
[5]
  polar metabolites in mouse brain: significant contribution of brain activity from polar metabolites
[6]
  standard uptake volume (SUV), whole brain: ~ 0.2

Source: paper PMC10973027 (Molecular Imaging and Biology, 2023)
